How the values were obtained:
[1] = tested on: convulsive seizures in subjects with Dravet syndrome; assay: Study 1 (ZX008-1501/ZX008-1502), Phase 3, randomized, double-blind, placebo-controlled; type: in vivo, human; conditions: 0.2 mg/kg/day, end of T+M Period, SD 140.46, p=0.735
Experimental: The first 119 subjects to be randomized in both identical studies combined were analyzed and reported as Study 1 (FIG. 1), covered by a Statistical Analysis Plan (SAP).
Primary and key secondary endpoints in the Study 1 SAP were pre-determined. All patients were treated twice per day over a period of 14 weeks using an oral syringe to administer the formulation. The treatment period included a two-week titration period and a 12-week maintenance period.
The initial results of Study 1 are outlined below. The randomized, double blind, placebo controlled, Phase 3 study enrolled 119 patients across sites in the United States, Canada, Europe and Australia. The median age of patients was 8 years, the mean age of patients was 9 years (range, 2-18 years) (FIG. 2).
Patients were titrated to their target dose over two weeks, and then remained at that fixed dose for 12 weeks. The mean baseline convulsive seizure frequency across the study groups was approximately 40 seizures per month. 110 (92%) patients completed the study (85% 0.8 mg/kg/day; 100% 0.2 mg/kg/day; 93% placebo). […]
The mean number of convulsive seizure free days, defined as a day for which diary data are available and no convulsive seizures have been reported, was determined for each treatment group during the Baseline and T+M Periods. […]

[2] = tested on: seizures in patients with Dravet syndrome; conditions: long-term fenfluramine treatment; cited from earlier work

For CCNC(C)Cc1cccc(C(F)(F)F)c1 (stereo not shown) [Fenfluramine, 3-trifluoromethyl-N-ethylamphetamine], the “reduction from Baseline in non-convulsive seizures (all types) per 28 days” value [1] is given as 9.7%, the “effect on types of seizures” value [2] is given as “effectively reduced the incidence of all types of seizures” and the reduction in seizures [2] is given as 75%. The “test subjects in seizure-free condition” value [2] was 66.6%.
